Results from patent US9321768B2, “Indoles as respiratory syncytial virus antiviral agents” (JANSSEN SCIENCES IRELAND UC, priority 2010, dated 2016).
Where two headings read alike, the source gives them in different places.

Legend:
rgRSV224 virus = test: microbe, parasite or virus in culture; format: cell-based, respiratory syncytial virus (RSV); conditions: for EC50: read-out: WT activity EC50; for SI CC50/EC50: ratio of HeLa CC50 to rgRSV224 EC50
Protocol: (§1) Black 96-well clear-bottom microtiter plates (Corning, Amsterdam, The Netherlands) were filled in duplicate using a customized robot system with serial 4-fold dilutions of compound in a final volume of 50 μl culture medium [RPMI medium without phenol red, 10% FBS, 0.04% gentamycin (50 mg/ml) and 0.5% DMSO]. Then, 100 μl of a HeLa cell suspension (5×10^4 cells/ml) in culture medium was added to each well followed by the addition of 50 μl rgRSV224 (MOI=0.02) virus in culture medium using a multidrop dispenser (Thermo Scientific, Erembodegem, Belgium). rgRSV224 virus is an engineered virus that includes an additional GFP gene (Hallak et al, 2000) and was in-licensed from the NIH (Bethesda, Md., USA). Medium, virus- and mockinfected controls were included in each test. Cells were incubated at 37° C. in a 5% CO2 atmosphere. Three days post-virus exposure, viral replication was quantified by measuring GFP expression in the cells by a MSM laser microscope (Tibotec, Beerse, Belgium). The EC50 was defined as the 50% inhibitory concentration for GFP expression. In parallel, compounds were incubated for three days in a set of white 96-well microtitier plates (Corning) and the cytotoxicity of compounds in HeLa cells was determined by measuring the ATP content of the cells using the ATPlite kit (PerkinElmer, Zaventem, Belgium) according to the manufacturer's instructions. The CC50 was defined as the 50% concentration for cytotoxicity.

[1] = Cytotoxicity in HeLa cells, ATP content (ATPlite kit); format: cell-based; conditions: human
Protocol: as §1

[2] = human respiratory syncytial virus, HeLa, 72 h
[3] = HeLa cells, three days incubation, ATP content, read-out: Toxicity CC50
[4] = rgRSV224 (MOI=0.02) in HeLa cells, GFP expression three days post-virus exposure

| SMILES | EC50 (rgRSV224 virus; [2]) | CC50 at 3 days [1, 3] | SI CC50/EC50 (rgRSV224 virus) | EC50 (rgRSV224 virus; [4]) | CC50 at 3 days [1] |
| --- | --- | --- | --- | --- | --- |
| CC(C)CCn1c(Cn2c(=O)n(C3CC3)c3ccncc32)c(C(=O)NS(C)(=O)=O)c2ccccc21 [Compound 19, 2-((1-cyclopropyl-2-oxo-1H-imidazo[4,5-c]pyridin-3 (2H)-yl)methyl)-1-isopentyl-N-(methylsulfonyl)-1H-indole-3-carboxamide] | 3210 nM | > 9840 nM |  |  |  |
| CS(=O)(=O)CCCn1c(Cn2c(=O)n(C3COC3)c3ccncc32)cc2cc(F)ccc21 [Compound P22] |  |  | >4200 | 23.8 nM |  |
| CS(=O)(=O)CCCn1c(Cn2c(=O)n(C3CC3)c3ccncc32)cc2ccccc21 [Compound P25] |  |  | >10945 | 9.14 nM |  |
| CS(=O)(=O)CCCn1c(Cn2c(=O)n(C3CC3)c3ccc(F)cc32)cc2cc(Cl)ccc21 [Compound 8, 3-((5-Chloro-1-(3-(methylsulfonyl)propyl)-1H-indol-2-yl)methyl)-1-cyclopropyl-5-fluoro-1H-benzo[d]imidazol-2(3H)-one] | 3.79 nM |  |  |  | > 9840 nM |
| O=C(NC1CC1)c1c(Cn2c(=O)n(C3CC3)c3ccncc32)n(CCCC(F)(F)F)c2ccc(Cl)cc12 [Compound P68] |  |  | 249 | 12.6 nM |  |
| CC(C)CCn1c(Cn2c(=O)n(C3CC3)c3ccncc32)c(C(N)=O)c2ccccc21 [Compound 14, 2-((1-cyclopropyl-2-oxo-1H-imidazo[4,5-c]pyridin-3(2H)-yl)methyl)-1-isopentyl-1H-indole-3-carboxamide] | 4.51 nM | > 24600 nM |  |  |  |
| CS(=O)(=O)CCCn1c(Cn2c(=O)n(CC(F)(F)F)c3ccc(F)cc32)cc2cc(Cl)ccc21 [Compound P50] |  |  | 5176 | 4.8 nM |  |
| CS(=O)(=O)CCCn1c(Cn2c(=O)n(C3COC3)c3ccncc32)cc2cc(Br)ccc21 [Compound 5, 3-((5-Bromo-1-(3-(methylsulfonyl)propyl)-1H-indol-2-yl)methyl)-1-(oxetan-3-yl)-1H-imidazo[4,5-c]pyridin-2(3H)-one] | 1.56 nM |  |  |  | > 9840 nM |
| CNC(=O)c1c(Cn2c(=O)n(C3CC3)c3ccncc32)n(CCCC(F)(F)F)c2ccc(Cl)cc12 [Compound P64] |  |  | >3896 | 6.42 nM |  |
| CS(=O)(=O)CCCn1c(Cn2c(=O)n(C3CC3)c3ccncc32)cc2cc(Cl)ccc21 [Compound 1, 3-((5-Chloro-1-(3-(methylsulfonyl)propyl)-1H-indol-2-yl)methyl)-1-cyclopropyl-1H-imidazo[4,5-c]pyridin-2(3H)-one] | 0.286 nM |  |  |  | > 9840 nM |
| CS(=O)(=O)CCCn1c(Cn2c(=O)n(C3CC3)c3ccccc32)cc2cc(F)ccc21 [Compound P26] |  |  | 2270 | 22.6 nM |  |
| CS(=O)(=O)CCCn1c(Cn2c(=O)n(C3COC3)c3ccncc32)cc2ccccc21 [Compound P24] |  |  | >3065 | 32.6 nM |  |
| CC(C)CCn1c(Cn2c(=O)n(C3CC3)c3ccncc32)c(C(=O)O)c2ccccc21 [Compound 17, 2-((1-cyclopropyl-2-oxo-1H-imidazo[4,5-c]pyridin-3(2H)-yl)methyl)-1-isopentyl-1H-indole-3-carboxylic acid] | 159 nM | > 98400 nM |  |  |  |
| N#CCCCn1c(Cn2c(=O)n(C3CC3)c3ccccc32)cc2cc(Cl)ccc21 [Compound P35] |  |  | 5353 | 3.14 nM |  |
| CS(=O)(=O)CCCn1c(Cn2c(=O)n(C3CC3)c3ccccc32)cc2ccccc21 [Compound P28] |  |  | 184 | 348 nM |  |
| NC(=O)c1c(Cn2c(=O)n(C3CC3)c3ccncc32)n(CCCCF)c2ccc(Cl)cc12 [Compound P54, 5-chloro-2-((1-cyclopropyl-2-oxo-1H-imidazo[4,5-c]pyridin-3(2H)-yl)methyl)-1-(4-fluorobutyl)-1H-indole-3-carboxamide] | 0.0528 nM |  | >603587 |  |  |
| CS(=O)(=O)CCCn1c(Cn2c(=O)n(C3CC3)c3ccccc32)cc2cc(Cl)ccc21 [Compound P40] |  |  | >29923 | 2.94 nM |  |
| O=c1n(Cc2cc3cc(F)ccc3n2CCCCF)c2cnccc2n1C1CC1 [Compound P29] |  |  | 2149 | 13.8 nM |  |
| O=c1n(Cc2cc3cc(Cl)ccc3n2CCCCF)c2cnccc2n1C1COC1 [Compound P66] |  |  | 21581 | 1.25 nM |  |

| SMILES | EC50 (rgRSV224 virus; [2]) | CC50 at 3 days [1, 3] | SI CC50/EC50 (rgRSV224 virus) | EC50 (rgRSV224 virus; [4]) | CC50 at 3 days [1] |
| --- | --- | --- | --- | --- | --- |
| N#CCCCn1c(Cn2c(=O)n(C3CC3)c3ccncc32)cc2cc(Cl)ccc21 [Compound P33] |  |  | 190625 | 0.266 nM |  |
| COc1ccc2c(c1)n(Cc1cc3cc(F)ccc3n1CCCS(C)(=O)=O)c(=O)n2C1CC1 [Compound P41] |  |  | 886 | 63.4 nM |  |
| CS(=O)(=O)CCCn1c(Cn2c(=O)n(CC(F)(F)F)c3ccncc32)cc2cc(Cl)ccc21 [Compound P55] |  |  | >258982 | < 0.157 nM |  |
| O=c1n(Cc2cc3cc(Cl)ccc3n2CCCC(F)(F)F)c2cnccc2n1C1COC1 [Compound P67] |  |  | >85461 | 1.25 nM |  |
| CC(C)(O)CCCn1c(Cn2c(=O)n(CC(F)(F)F)c3ccncc32)cc2cc(Cl)ccc21 [Compound P74] |  |  | 15708 | 3.16 nM |  |
| CC(C)(O)CCCn1c(Cn2c(=O)n(C3COC3)c3ccncc32)cc2cc(Cl)ccc21 [Compound P73] |  |  | 15070 | 3.16 nM |  |
| CC(C)(O)CCCn1c(Cn2c(=O)n(C3CC3)c3ccncc32)cc2cc(Cl)ccc21 [Compound P72] |  |  | 24273 | 1.58 nM |  |
| N#CCCCn1c(Cn2c(=O)n(CC(F)(F)F)c3ccncc32)cc2cc(Cl)ccc21 [Compound P62] |  |  | 81459 | 0.539 nM |  |
| CS(=O)(=O)CCCn1c(Cn2c(=O)n(C3CC3)c3ccccc32)cc2cc(Br)ccc21 [Compound P21] |  |  | 6322 | 3.88 nM |  |
| NC(=O)c1c(Cn2c(=O)n(C3CC3)c3ccc(F)cc32)n(CCCC(F)(F)F)c2ccc(Cl)cc12 [Compound P65] |  |  | >45348 | 1.1 nM |  |
| CS(=O)(=O)CCCn1c(Cn2c(=O)n(C3CC3)c3ccc(F)cc32)cc2cc(F)ccc21 [Compound P27] |  |  | 664 | 36 nM |  |
| NC(=O)c1c(Cn2c(=O)n(C3CC3)c3ccc(F)cc32)n(CCCCF)c2ccc(Cl)cc12 [Compound P63] |  |  | >89869 | 1.11 nM |  |
| CS(=O)(=O)CCCn1c(Cn2c(=O)n(C3CC3)c3ccncc32)cc2cc(F)ccc21 [Compound P20] |  |  | 15206 | 4.07 nM |  |
| O=c1n(Cc2cc3cc(Br)ccc3n2CCCC(F)(F)F)c2ccccc2n1C1CC1 [Compound P31] |  |  | 3446 | 12.1 nM |  |
| O=c1n(Cc2cc3cc(Br)ccc3n2CCCC(F)(F)F)c2cnccc2n1C1CC1 [Compound P32] |  |  | 53514 | 0.34 nM |  |
| O=c1n(Cc2cc3cc(F)ccc3n2CCCCF)c2ccccc2n1C1CC1 [Compound P34] |  |  | >398 | 251 nM |  |
| O=c1n(Cc2cc3cc(Cl)ccc3n2CCCCF)c2cnccc2n1C1CC1 [Compound P30] |  |  | 24457 | 0.733 nM |  |
| O=c1n(Cc2cc3cc(Cl)ccc3n2CCCN2CCOCC2)c2cnccc2n1C1CC1 [Compound P58] |  |  | 7416 | 5.8 nM |  |
| CS(=O)(=O)CCCn1c(Cn2c(=O)n(C3CC3)c3ccncc32)cc2cc(C(F)(F)F)ccc21 [Compound P23] |  |  | 6557 | 7.37 nM |  |
